For 27 compounds, EC50 results are on record in patent US20230339886A1 (University of Florida Research Foundation, Incorporated, priority 2020, published 2023).

What is called EC50 is the concentration giving half of the maximal effect.

The target of assay [1] is T1, REV-ERBβ (Homo sapiens, UniProt Q14995).
T1 construct: 6×Histag-REV-ERBα LBD (human; residues 381-579); made in house; host or cells: Escherichia coli
T1 sequence (Q14995 381-579): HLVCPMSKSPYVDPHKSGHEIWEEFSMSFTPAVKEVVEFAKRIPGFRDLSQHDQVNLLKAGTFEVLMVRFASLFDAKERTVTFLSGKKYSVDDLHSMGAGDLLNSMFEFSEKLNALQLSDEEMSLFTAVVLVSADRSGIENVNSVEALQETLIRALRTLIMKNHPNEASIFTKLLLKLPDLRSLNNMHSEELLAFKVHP
Briefly: TR-FRET corepressor interaction assay (REV-ERBβ, FITC-SMRT peptide). The following applies: Table 2, read-out: REVERBβ agonism (EC50 class, FRET assay). Type of assay: biochemical. Here is the method:
TR-FRET corepressor interaction assay. The time-resolved fluorescence resonance energy transfer (TR-FRET) assay was performed in black low-volume 384-well plates (Greiner). […] Ligand stocks were prepared via serial dilution in DMSO, added to wells in triplicate, and plates were incubated at 4° C. for 2 h and read using a BioTek Synergy Neo multimode plate reader. The Tb donor was excited at 340 nm; its fluorescence emission was monitored at 495 nm, and the acceptor FITC emission was measured at 520 nm; and the TR-FRET ratio was calculated as the signal at 520 nm divided by the signal at 495 nm. Data were plotted using GraphPad Prism as TR-FRET ratio vs. ligand concentration and fit to sigmoidal dose response curve equation.
Exemplary compounds of the present disclosure were assayed as described above to assess agonism of REV-ERBα and REV-ERBβ.
On the technique in general: In TR-FRET formats the signal depends on donor and acceptor labels being close together.

Assay [2] deals with T2, REV-ERBα LBD (human; residues 281-614 Δ324-422) (Homo sapiens, UniProt P20393, DEL324-422).
T2 construct: 6×Histag-REV-ERBα LBD (human; residues 281-614 Δ324-422); made in house; host or cells: Escherichia coli
T2 sequence (P20393 with tags, fused parts or gaps DEL324-422): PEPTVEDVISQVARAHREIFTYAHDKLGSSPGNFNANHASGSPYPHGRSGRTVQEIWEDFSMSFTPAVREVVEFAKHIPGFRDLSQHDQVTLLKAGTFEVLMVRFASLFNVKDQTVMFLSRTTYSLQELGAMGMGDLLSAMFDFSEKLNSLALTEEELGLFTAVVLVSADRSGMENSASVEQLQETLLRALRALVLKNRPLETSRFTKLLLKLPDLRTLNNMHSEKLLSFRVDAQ
T2 sequence (Q9Y618 2335-2356 partner limits assumed): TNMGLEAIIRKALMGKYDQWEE
Briefly: TR-FRET corepressor interaction assay (REV-ERBα LBD, FITC-SMRT peptide). In kind it is biochemical. Particulars: Table 2, read-out: REVERBα agonism (EC50 class, FRET assay). Summed up:
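Compound serial dilutions (in DMSO, triplicate) incubated 2 h at 4 °C; Tb donor excited at 340 nm, emission read at 495 nm and FITC acceptor at 520 nm. TR-FRET ratio (520/495 nm) plotted against ligand concentration and fitted to a sigmoidal dose-response curve.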

Where only a bound is given, the exact number is not on record here.

For the compound `CC(C)(C)Cn1cc(CNS(=O)(=O)C2CC2)c2cc(F)c(-c3ccccc3C(F)(F)F)cc21` [Compound 278], the EC50 in assay [1] is 500 to 3000 nM; in assay [2], less than 500 nM.

With `CC(C)(C)Cn1cc(CNS(=O)(=O)C2CC2)c2cc(F)c(-c3ccncc3Cl)cc21` [Compound 279], the EC50 is greater than 3000 nM in assay [1] and less than 500 nM in assay [2].

`O=S(=O)(NCc1cn(CC2(C(F)(F)F)CC2)c2cc(-c3ccncc3Cl)c(F)cc12)C1CC1` [Compound 286]: the 50% effective concentration (EC50) in assay [1] is greater than 3000 nM; in assay [2], less than 500 nM.

`CC(C)Cn1cc(CCNS(=O)(=O)N(C)C)c2ccc(-c3c(Cl)cccc3Cl)cc21` [Example 80, N-{2-[6-(2,6-dichlorophenyl)-1-(2-methylpropyl)-1H-indol-3-yl]ethyl}-N,N-dimethyl-sulfuric diamide]: the 50% effective concentration (EC50) was greater than 3000 nM in assay [1] and less than 500 nM in assay [2].

On to `CC(C)Cn1cc(CCNS(=O)(=O)N(C)C)c2ccc(C(F)(F)F)cc21` [Example 105, dimethyl({2-[1-(2-methylpropyl)-6-(trifluoromethyl)-1H-indol-3-yl]ethyl}sulfamoyl)amine], for which the EC50 in assay [1] is greater than 3000 nM; in assay [2], less than 500 nM.

For the compound `Cc1cc2c(CCNS(=O)(=O)N(C)C)cn(CC(C)C)c2cc1C` [Example 120, ({2-[5,6-dimethyl-1-(2-methylpropyl)-1H-indol-3-yl]ethyl}sulfamoyl)dimethylamine], the EC50 in assay [1] was greater than 3000 nM; in assay [2], less than 500 nM.

On to `CC(C)Cn1cc(CCNS(=O)(=O)N(C)C)c2cccc(Br)c21` [Example 137, ({2-[7-bromo-1-(2-methylpropyl)-1H-indol-3-yl]ethyl}sulfamoyl)dimethylamine], for which the EC50 in assay [1] was greater than 3000 nM; in assay [2] it was 500 to 3000 nM.

As to `CC(C)C(=O)n1cc(C(C)NS(=O)(=O)N(C)C)c2ccc(-c3ccncc3)cc21` (stereo not drawn) [Example 180, 1-(3-{1-[(dimethylsulfamoyl)amino]ethyl}-6-(pyridin-4-yl)-1H-indol-1-yl)-2-methylpropan-1-one], the figures for the concentration for a half-maximal effect (EC50) in assay [1] and in assay [2] were greater than 3000 nM and less than 500 nM, respectively.

Regarding `CC(C)C(=O)n1cc(C(C)NS(=O)(=O)N(C)C)c2ccc(-c3ccccc3C(F)(F)F)cc21` (stereo not drawn) [Example 195, 1-(3-{1-[(dimethylsulfamoyl)amino]ethyl}-6-[2-(trifluoromethyl)phenyl]-1H-indol-1-yl)-2-methylpropan-1-one], the EC50 is 500 to 3000 nM in assay [1] and less than 500 nM in assay [2].

For the compound `Cc1c(-c2ccncc2)ccc2c(CCNS(=O)(=O)N(C)C)cn(C(=O)C(C)C)c12` [Example 199, 1-(3-{2-[(dimethylsulfamoyl)amino]ethyl}-7-methyl-6-(pyridin-4-yl)-1H-indol-1-yl)-2-methylpropan-1-one], the figures for the half-maximal effective concentration (EC50) in assay [1] and in assay [2] were 500 to 3000 nM and less than 500 nM, respectively.

Regarding `Cc1c(-c2ccncc2)ccc2c(CCNS(=O)(=O)N(C)C)cn(CC(C)C)c12` [Example 200, dimethyl({2-[7-methyl-1-(2-methylpropyl)-6-(pyridin-4-yl)-1H-indol-3-yl]ethyl}sulfamoyl)amine], the EC50 in assay [1] is greater than 3000 nM; in assay [2] it was less than 500 nM.

Consider `CC(C)Cn1cc(CCNS(=O)(=O)N(C)C)c2ccc(-c3ccncc3)nc21` [Example 203, dimethyl({2-[1-(2-methylpropyl)-6-(pyridin-4-yl)-1H-pyrrolo[2,3-b]pyridin-3-yl]ethyl}sulfamoyl)amine], for which the EC50 was greater than 3000 nM in assay [1] and less than 500 nM in assay [2].

Consider `CC(C)(C)Cc1cn(CCNS(=O)(=O)C2CC2)c2ccc(-c3ccccc3C(F)(F)F)cc12` [Example 212, N-(2-(3-neopentyl-5-(2-(trifluoromethyl)phenyl)-1H-indol-1-yl)ethyl)cyclopropane sulfonamide], for which the figures for the EC50 in assay [1] and in assay [2] were 500 to 3000 nM and less than 500 nM, respectively.

On to `CC(C)(C)Cc1cn(CCNS(=O)(=O)C2CC2)c2ccc(-c3c(Cl)cccc3Cl)cc12` [Example 214, N-(2-(5-(2,6-dichlorophenyl)-3-neopentyl-1H-indol-1-yl)ethyl)cyclopropane-sulfonamide], for which the 50% effective concentration (EC50) in assay [1] is 500 to 3000 nM; in assay [2], less than 500 nM.

Consider `CC(C)(C)Cc1cn(CCNS(=O)(=O)C2CC2)c2ccc(-c3cccc(F)c3C(F)(F)F)cc12` [Example 227, N-(2-(5-(3-fluoro-2-(trifluoromethyl)phenyl)-3-neopentyl-1H-indol-1-yl)ethyl) cyclopropanesulfonamide], for which the figures for the EC50 in assay [1] and in assay [2] were 500 to 3000 nM and less than 500 nM, respectively.

Turning to `Cc1ccc2c(c1)c(CC(C)(C)C)cn2CCNS(=O)(=O)C1CC1` [Example 296, N-(2-(5-methyl-3-neopentyl-1H-indol-1-yl)ethyl)cyclopropanesulfonamide], the EC50 in assay [1] was greater than 3000 nM; in assay [2], 500 to 3000 nM.

For `CC(C)(C)Cc1cn(CCNS(=O)(=O)C2CC2)c2ccc(-c3c(Cl)cc(F)cc3Cl)cc12` [Example 297, N-(2-(5-(2,6-dichloro-4-fluorophenyl)-3-neopentyl-1H-indol-1-yl)ethyl) cyclo-propane sulfonamide], the half-maximal effective concentration (EC50) in assay [1] and in assay [2] was 500 to 3000 nM throughout.

For `CC(C)(C)Cc1cn(CCNS(=O)(=O)C2CC2)c2ccc(Br)cc12` [Example 298, N-(2-(5-bromo-3-neopentyl-1H-indol-1-yl)ethyl)cyclopropanesulfonamide], the EC50 in assay [1] was greater than 3000 nM; in assay [2], 500 to 3000 nM.

Take `CC(C)(C)Cc1cn(CCNS(=O)(=O)C2CC2)c2ccc(-c3ccc(C(F)(F)F)cc3C(F)(F)F)cc12` [Example 299, N-(2-(5-(2,4-bis(trifluoromethyl)phenyl)-3-neopentyl-1H-indol-1-yl)ethyl)cyclo-propanesulfonamide]: the values for the EC50 in assay [1] and in assay [2] were 500 to 3000 nM and less than 500 nM, respectively.

Take `CC(C)(C)Cc1cn(CCNS(=O)(=O)C2CC2)c2ccc(-c3ccc(C(F)(F)F)cc3Cl)cc12` [Example 300, N-(2-(5-(2-chloro-4-(trifluoromethyl)phenyl)-3-neopentyl-1H-indol-1-yl)ethyl) cyclopropanesulfonamide]: the values for the EC50 in assay [1] and in assay [2] were 500 to 3000 nM and less than 500 nM, respectively.

As to `CC(C)(C)Cc1cn(CCNS(=O)(=O)C2CC2)c2ccc(-c3ccc(F)cc3C(F)(F)F)cc12` [Example 301, N-(2-(5-(4-fluoro-2-(trifluoromethyl)phenyl)-3-neopentyl-1H-indol-1-yl)ethyl) cyclopropanesulfonamide], the EC50 is 500 to 3000 nM in assay [1] and less than 500 nM in assay [2].

Turning to `Cc1ccc2c([C@H](NS(=O)(=O)C3CC3)C(F)(F)F)cn(CC(C)C)c2c1` [Example 309, (S)—N-(2,2,2-trifluoro-1-(1-isobutyl-6-methyl-1H-indol-3-yl)ethyl)cyclopropanesulfonamide], the 50% effective concentration (EC50) in assay [1] and in assay [2] was less than 500 nM in each case.

For `CC(C)Cn1cc([C@H](NS(=O)(=O)C2CC2)C(F)(F)F)c2ccc(C3CC3)cc21` [Example 310, (S)—N-(1-(6-cyclopropyl-1-isobutyl-1H-indol-3-yl)-2,2,2-trifluoroethyl)cyclopropanesulfonamide], the concentration giving a half-maximal response (EC50) in assay [1] is 500 to 3000 nM; in assay [2], less than 500 nM.

Regarding `CC(C)Cn1cc([C@H](NS(=O)(=O)C2CC2)C(F)(F)F)c2cc(F)c(-c3ccccc3C(F)(F)F)cc21` [Example 313, (S)—N-(2,2,2-trifluoro-1-(5-fluoro-1-isobutyl-6-(2-(trifluoromethyl)phenyl)-1H-indol-3-yl)ethyl)cyclopropanesulfonamide], the values for the half-maximal effective concentration (EC50) in assay [1] and in assay [2] were greater than 3000 nM and less than 500 nM, respectively.

As for `CC(C)(C)Cn1cc([C@H](NS(=O)(=O)C2CC2)C(F)(F)F)c2ccc(-c3ccccc3C(F)(F)F)cc21` [Example 322, (S)—N-(2,2,2-trifluoro-1-(1-neopentyl-6-(2-(trifluoromethyl)phenyl)-1H-indol-3-yl)ethyl)cyclopropanesulfonamide], the EC50 was 500 to 3000 nM in assay [1] and less than 500 nM in assay [2].

Take `CN(C)S(=O)(=O)N[C@@H](c1cn(CC(C)(C)C)c2cc(-c3ccccc3C(F)(F)F)ccc12)C(F)(F)F` [Example 323, {[(1S)-1-[1-(2,2-dimethylpropyl)-6-[2-(trifluoromethyl)phenyl]-1H-indol-3-yl]-2,2,2-trifluoroethyl]sulfamoyl}dimethylamine]: the EC50 in assay [1] was greater than 3000 nM; in assay [2], less than 500 nM.

For the compound `CN(C)S(=O)(=O)N[C@@H](c1cn(CC(C)(C)C)c2cc(C3CC3)c(F)cc12)C(F)(F)F` [Example 328, {[(1S)-1-[6-cyclopropyl-1-(2,2-dimethylpropyl)-5-fluoro-1H-indol-3-yl]-2,2,2-trifluoroethyl]sulfamoyl}dimethylamine], the EC50 in assay [1] was greater than 3000 nM; in assay [2], less than 500 nM.
